Reference: PubChem BioAssay (NCI)
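Each compound was tested at five concentrations against cells in 96-well plates for 48 hours. TGI: total growth inhibition.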

Columns and labels:
Test in all cases: DTP human tumour cell line panel, 48 h
[1] = tested on: OVCAR-3 ovarian
[2] = tested on: SNB-75 CNS
[3] = tested on: NCI-H226 lung
[4] = tested on: SF-295 CNS
[5] = tested on: HOP-92 NSCLC
[6] = tested on: MDA-MB-435
[7] = tested on: NCI-H460 lung
[8] = tested on: HL-60(TB) leukemia
[9] = tested on: T-47D breast
[10] = tested on: SF-268 CNS
[11] = tested on: KM12 colon
[12] = tested on: NCI/ADR-RES ovarian
[13] = tested on: SK-MEL-5 melanoma
[14] = tested on: RXF 393 renal
[15] = tested on: IGROV1 ovarian
[16] = tested on: COLO 205 colon
[17] = tested on: EKVX NSCLC
[18] = tested on: BT-549 breast
[19] = tested on: TK-10 renal
[20] = tested on: HCT-116 colon
[21] = tested on: OVCAR-5 ovarian
[22] = tested on: NCI-H23 lung
[23] = tested on: CCRF-CEM leukemia
[24] = tested on: UO-31 renal
[25] = tested on: OVCAR-8 ovarian
[26] = tested on: UACC-62 melanoma
[27] = tested on: SK-MEL-2 melanoma
[28] = tested on: OVCAR-4 ovarian
[29] = tested on: 786-0 renal
[30] = tested on: K-562 leukemia
[31] = tested on: HT29 colon
[32] = tested on: DU-145 prostate
[33] = tested on: HCT-15 colon
[34] = tested on: SK-MEL-28 melanoma
[35] = tested on: RPMI-8226 leukemia
[36] = tested on: UACC-257 melanoma
[37] = tested on: HS 578T breast
[38] = tested on: LOX IMVI melanoma
[39] = tested on: A549 NSCLC
[40] = tested on: SNB-19 CNS
[41] = tested on: MDA-MB-231 breast
[42] = tested on: HCC-2998 colon
[43] = tested on: SR leukemia
[44] = tested on: SW-620 colon
[45] = tested on: CAKI-1 renal
[46] = tested on: PC-3 prostate
[47] = tested on: NCI-H522 lung
[48] = tested on: MALME-3M melanoma
[49] = tested on: ACHN renal
[50] = tested on: MCF7 breast
[51] = tested on: MOLT-4 leukemia
[52] = tested on: SK-OV-3 ovarian
[53] = tested on: M14 melanoma
[54] = tested on: U251 CNS
[55] = tested on: SN12C renal
[56] = tested on: A498 renal
[57] = tested on: HOP-62 NSCLC
[58] = tested on: SF-539 CNS

Cc1ccc(Nc2nc3nc[nH]c3c(=O)[nH]2)cc1CO
TGI [1]: 29.2 µM
TGI [2]: 29.2 µM
TGI [3]: 31.8 µM
TGI [4]: 29.6 µM
TGI [5]: 21 µM
TGI [6]: 29.6 µM
TGI [7]: 30.7 µM
TGI [8]: 21.6 µM
TGI [9]: 27.2 µM
TGI [10]: 35.8 µM
TGI [11]: 22.7 µM
TGI [12]: 29.8 µM
TGI [13]: 31.2 µM
TGI [14]: 30 µM
TGI [15]: 28.3 µM
TGI [16]: 27.8 µM
TGI [17]: 28 µM
TGI [18]: 28.4 µM
TGI [19]: 31.9 µM
TGI [20]: 25.4 µM
TGI [21]: 33.6 µM
TGI [22]: 33.9 µM
TGI [23]: 36.2 µM
TGI [24]: 29.5 µM
TGI [25]: 30.4 µM
TGI [26]: 25.9 µM
TGI [27]: 31.2 µM
TGI [28]: 31.4 µM
TGI [29]: 29.1 µM
TGI [30]: 40 µM
TGI [31]: 22 µM
TGI [32]: 33.6 µM
TGI [33]: 29.9 µM
TGI [34]: 32.1 µM
TGI [35]: 33.7 µM
TGI [36]: 31.2 µM
TGI [37]: 43.9 µM
TGI [38]: 36.5 µM
TGI [39]: 10.2 µM
TGI [40]: 24.6 µM
TGI [41]: 24.7 µM
TGI [42]: 28.9 µM
TGI [43]: 37.7 µM
TGI [44]: 32 µM
TGI [45]: 29.3 µM
TGI [46]: 25.4 µM
TGI [47]: 24.3 µM
TGI [48]: 30.4 µM
TGI [49]: 29.4 µM
TGI [50]: 30.4 µM
TGI [51]: 34.3 µM
TGI [52]: 27.7 µM
TGI [53]: 25.5 µM

Cc1cc(NN)nc2n[nH]c(N)c12
TGI [1]: > 100 µM
TGI [2]: > 100 µM
TGI [3]: > 100 µM
TGI [4]: > 100 µM
TGI [5]: > 100 µM
TGI [6]: > 100 µM
TGI [7]: > 100 µM
TGI [9]: > 100 µM
TGI [10]: > 100 µM
TGI [11]: > 100 µM
TGI [12]: > 100 µM
TGI [13]: > 100 µM
TGI [14]: > 100 µM
TGI [15]: > 100 µM
TGI [16]: > 100 µM
TGI [17]: > 100 µM
TGI [18]: > 100 µM
TGI [19]: > 100 µM
TGI [20]: > 100 µM
TGI [21]: > 100 µM
TGI [22]: > 100 µM
TGI [23]: > 100 µM
TGI [24]: > 100 µM
TGI [25]: > 100 µM
TGI [26]: > 100 µM
TGI [27]: > 100 µM
TGI [28]: > 100 µM
TGI [54]: > 100 µM
TGI [29]: > 100 µM
TGI [30]: > 100 µM
TGI [31]: > 100 µM
TGI [32]: > 100 µM
TGI [33]: > 100 µM
TGI [34]: > 100 µM
TGI [35]: > 100 µM
TGI [36]: > 100 µM
TGI [37]: > 100 µM
TGI [38]: > 100 µM
TGI [55]: > 100 µM
TGI [39]: > 100 µM
TGI [56]: > 100 µM
TGI [40]: > 100 µM
TGI [41]: > 100 µM
TGI [43]: > 100 µM
TGI [44]: > 100 µM
TGI [45]: > 100 µM
TGI [46]: > 100 µM
TGI [47]: > 100 µM
TGI [48]: > 100 µM
TGI [49]: > 100 µM
TGI [50]: > 100 µM
TGI [51]: > 100 µM
TGI [57]: > 100 µM
TGI [52]: > 100 µM
TGI [58]: > 100 µM
TGI [53]: > 100 µM
